From patent US20240398823A1, “DUAL INHIBITOR OF HISTONE DEACETYLASE 6 AND HEAT SHOCK PROTEIN 90” (TAIPEI MEDICAL UNIVERSITY, priority 2021, published 2024) come the findings set out here.

The test system of data set [1] is HSP90 client proteins (HSP70, Src, AKT, Rb, FAK). The data set is described as follows: Western blot of HSP70 and HSP90 client proteins in HCT116. It counts as cell-based, human. As to conditions: HCT116, 0.25-1 μM, 48 hours. The protocol:
The ability of α-tubulin and histone H3 acetylation was measured.
The effects of the HSP90/HDAC6 dual inhibitors as described in Synthesis Examples (such as Compounds 63, 64, and 66 to 76) on several factors were evaluated. Cells were lysed in RIPA buffer (Thermo Fisher Scientific, Wal-tham, MA, USA) and protease inhibitor (Roche, Basel, CH). Sample were further separated in 8% or 15% SDS-PAGE and transferred to nitrocellulose membrane and blocked with 5% skim milk (w/v in PBS). Nitrocellulose membranes were then incubated with primary antibodies against the following antigens: HSP90, Src, AKT, Rb, phosphorylated Rb (p-Rb), FAK, HSP70, α-tubulin acetylation, acetyl histone H3, phosphorylated STAT1 (p-STAT1), STAT1 (Cell signaling, Danvers, MA, USA), α-tubulin, Histone H3 (Genetex, Irvine, USA), IDO (Santa Cruz Biotechnology Dallas, TX, USA) and PD-L1 (Novus, Littleton, CO, USA) at 4° C. for overnight. The target proteins were visualized by using HRP-conjugated secondary antibodies (Jackson ImmunoResearch Laboratories, West Grove, PA, USA) and enhanced chemiluminescence kit (Thermo Fisher Scientific, Waltham, MA, U.S.A.).
The ability of Compound 75 on the acetylation of α-tubulin and histone H3 was evaluated. HCT116 cells were administered with Compound 75 for 6 hours and analyzed by western blot. […] Next, whether Compound 75 inhibited HSP90 was evaluated. […]

Another data set deals with T1, HDAC6 (Homo sapiens, UniProt Q9UBN7).
T1 construct: Reaction Biology Corporation (ran the assay as a service)
T1 sequence (Q9UBN7 1-1215): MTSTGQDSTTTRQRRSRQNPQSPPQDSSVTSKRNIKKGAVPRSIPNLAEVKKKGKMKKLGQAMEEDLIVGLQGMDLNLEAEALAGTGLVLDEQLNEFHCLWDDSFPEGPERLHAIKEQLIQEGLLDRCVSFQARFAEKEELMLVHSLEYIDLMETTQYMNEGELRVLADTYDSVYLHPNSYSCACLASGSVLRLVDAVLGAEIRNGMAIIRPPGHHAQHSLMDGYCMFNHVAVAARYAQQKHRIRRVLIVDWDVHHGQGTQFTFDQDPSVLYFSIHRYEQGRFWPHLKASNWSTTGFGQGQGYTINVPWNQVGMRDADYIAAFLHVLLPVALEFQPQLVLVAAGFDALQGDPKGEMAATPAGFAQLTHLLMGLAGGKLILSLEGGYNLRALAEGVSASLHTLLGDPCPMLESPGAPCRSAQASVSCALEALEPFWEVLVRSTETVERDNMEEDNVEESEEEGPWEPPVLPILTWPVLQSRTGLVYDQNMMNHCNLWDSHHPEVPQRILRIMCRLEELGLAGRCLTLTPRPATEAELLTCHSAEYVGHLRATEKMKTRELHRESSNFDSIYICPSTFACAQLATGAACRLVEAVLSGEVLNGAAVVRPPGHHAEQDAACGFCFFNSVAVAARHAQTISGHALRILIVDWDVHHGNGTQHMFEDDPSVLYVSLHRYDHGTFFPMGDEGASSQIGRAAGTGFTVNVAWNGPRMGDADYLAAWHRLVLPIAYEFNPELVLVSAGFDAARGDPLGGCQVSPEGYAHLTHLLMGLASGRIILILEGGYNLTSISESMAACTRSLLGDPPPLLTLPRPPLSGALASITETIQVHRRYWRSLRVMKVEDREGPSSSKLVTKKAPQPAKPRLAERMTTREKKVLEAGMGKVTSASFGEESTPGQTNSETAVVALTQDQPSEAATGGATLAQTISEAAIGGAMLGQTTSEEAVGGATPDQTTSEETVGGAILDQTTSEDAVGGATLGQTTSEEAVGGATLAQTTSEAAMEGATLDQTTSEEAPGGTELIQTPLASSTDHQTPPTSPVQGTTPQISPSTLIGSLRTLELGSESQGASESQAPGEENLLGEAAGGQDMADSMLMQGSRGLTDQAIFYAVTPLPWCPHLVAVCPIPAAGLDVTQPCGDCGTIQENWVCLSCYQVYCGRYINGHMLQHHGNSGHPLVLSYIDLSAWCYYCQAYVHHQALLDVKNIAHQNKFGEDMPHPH
Put plainly: HDAC enzymes inhibition assay (Reaction Biology), HDAC6. As to conditions: 10-dose, 3-fold dilution from 10 μM, single experiment. It counts as biochemical.

For data set [2], the system named is T cells in blood (CD8+, CD4+, Treg). Put plainly: Peripheral blood immune cells by flow cytometry in CT26 tumor mice. The data set is classed as in vivo, mouse. To be noted: day 25, flow cytometry, 10, 25, 50 mg/kg. The method, then: FIGS. 10A to 10C show immune cell regulation of peripheral blood by Compound 75. BALB/c mice with CT26 tumors were treated with 10, 25 and 50 mg/kg of Compound 75 every two days, and blood was collected from the heart and analyzed by flow cytometry on day 25 for cytotoxicity T cells (CD3+CD8+) (as shown in FIG. 10A), helper T cells (CD3^+CD4^+) (as shown in FIG. 10B) and regulatory T cells (CD3^+CD4^+FOXP3^+) (as shown in FIG. 10C). Data are expressed as mean±S.D. N values greater than 3. * P<0.05; ** P<0.01; *** P<0.001, compared with the control group.
The reasons for the decrease of Treg in blood were further investigated.

Turning to `COc1ccc(N(Cc2ccc(C(=O)NO)cc2)C(=O)c2cc(C(C)C)c(O)cc2O)cc1` [Compound 75, 2,4-Dihydroxy-N-(4-hydroxycarbamoyl-benzyl)-5-isopropyl-N-(4-methoxy-phenyl)-benzamide], in data set [1], the HSP70 expression result was “an increase in HSP70 expression”; the “protein levels of client proteins (Src, AKT, Rb and FAK)” value is reported as “a downregulation of the protein levels of client proteins”. Further, at HDAC6, half-maximal inhibition (IC50) was put at 4.56 nM. Besides, in data set [2], the “immunosuppressive Treg cell level in blood” value is listed as “could be reduced in a concentration dependent manner”, the “percentage of CD4+ helper T cells in blood” value was “did not affect” and the “percentage of CD8+ cytotoxicity T cells in blood” value is given as “did not affect”.
